Measured values from ChEMBL document CHEMBL5096151, “Phytocannabinoid Pharmacology: Medicinal Properties of Cannabis sativa Constituents Aside from the "Big Two"” (J Nat Prod, 2021).
In brackets after ≈: the same amount, converted by molar mass.

Key:
[1] = target: Cannabinoid receptor 2 (Homo sapiens, UniProt P34972); assay: Binding affinity to human CB2 receptor assessed as inhibition constant
[2] = target: T1, Cannabinoid receptor 1 (Homo sapiens, UniProt P21554); assay: Binding affinity to CB1 (unknown origin) receptor assessed as inhibition constant
[3] = target: T2, Transient receptor potential cation channel subfamily A member 1 (Homo sapiens, UniProt O75762); assay: Agonist activity at TRPA1 (unknown origin) channel desensitization in presence of isothiocyanate
[4] = tested on: Staphylococcus aureus; assay: Antibiofilm activity against methicillin-resistant Staphylococcus aureus USA300 incubated for 24 hrs by crystal violet staining based assay; format: functional
[5] = tested on: Staphylococcus aureus; assay: Antibacterial activity against methicillin-resistant Staphylococcus aureus USA300 infected in mouse assessed as log10 reduction in bacterial load in spleen at 100 mg/kg ,ip measured for 30 mins; format: functional; conditions: 0.5 h
[6] = target: T3, Transient receptor potential cation channel subfamily V member 2 (Homo sapiens, UniProt Q9Y5S1); assay: Agonist activity at ionomycin-stimulated TRPV2 (unknown origin) activation
T3 sequence (Q9Y5S1 whole entry): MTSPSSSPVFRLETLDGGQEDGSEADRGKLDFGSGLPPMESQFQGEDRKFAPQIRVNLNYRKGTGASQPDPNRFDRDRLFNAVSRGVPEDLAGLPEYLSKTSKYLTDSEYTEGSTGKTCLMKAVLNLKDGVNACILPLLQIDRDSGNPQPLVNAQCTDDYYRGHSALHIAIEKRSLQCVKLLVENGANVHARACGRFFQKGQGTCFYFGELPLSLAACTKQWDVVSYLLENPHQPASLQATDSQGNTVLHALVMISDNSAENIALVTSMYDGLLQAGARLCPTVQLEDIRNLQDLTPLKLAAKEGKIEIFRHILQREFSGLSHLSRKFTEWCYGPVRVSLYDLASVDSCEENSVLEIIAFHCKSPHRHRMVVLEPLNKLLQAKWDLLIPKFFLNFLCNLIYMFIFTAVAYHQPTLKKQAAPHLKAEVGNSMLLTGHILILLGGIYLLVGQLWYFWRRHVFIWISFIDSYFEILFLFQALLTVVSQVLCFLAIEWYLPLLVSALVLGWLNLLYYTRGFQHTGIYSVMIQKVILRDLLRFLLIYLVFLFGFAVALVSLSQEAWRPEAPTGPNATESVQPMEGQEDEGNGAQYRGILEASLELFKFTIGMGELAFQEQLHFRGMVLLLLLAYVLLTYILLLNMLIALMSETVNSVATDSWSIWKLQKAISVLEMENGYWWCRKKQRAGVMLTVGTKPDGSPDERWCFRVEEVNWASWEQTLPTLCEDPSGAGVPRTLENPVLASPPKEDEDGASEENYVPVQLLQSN

[7] = Agonist activity at CB2 receptor in albino MF1 mouse vas deferens assessed as inhibition of electrically evoked vas deferens contraction by incubated for 13 mins followed by electrical stimulation for 2 mins
[8] = target: T1, Cannabinoid receptor 1; assay: Displacement of [35S]GTPgammaS from human CB1 receptor expressed in CHO cells; format: cell-based
[9] = target: T2, Transient receptor potential cation channel subfamily A member 1; assay: Agonist activity at TRPA1 (unknown origin) activation
[10] = tested on: Staphylococcus aureus; assay: Antibiofilm activity against methicillin-resistant Staphylococcus aureus USA300 incubated for 24 hrs by CLSI based assay; format: functional
[11] = target: T4, Transient receptor potential cation channel subfamily V member 4 (Homo sapiens, UniProt Q9HBA0); assay: Agonist activity at ionomycin-stimulated TRPV4 (unknown origin) activation
[12] = target: Cannabinoid receptor 1 (Mus musculus) (UniProt P47746); assay: Agonist activity at CB1 receptor in albino MF1 mouse vas deferens assessed as inhibition of electrically evoked vas deferens contraction by incubated for 13 mins followed by electrical stimulation for 2 mins; format: functional; conditions: filed as antagonist, time 15.0 min
[13] = tested on: Escherichia coli; assay: […] activity against Escherichia coli in presence of polymyxin; format: functional
[14] = target: Cannabinoid receptor 1 (Rattus norvegicus, UniProt P20272); assay: Displacement of [35S]GTPgammaS from CB1 receptor in rat brain; format: tissue-based
[15] = target: T4, Transient receptor potential cation channel subfamily V member 4; assay: Agonist activity at ionomycin-stimulated TRPV4 (unknown origin) activation assessed as efficacy relative to control
[16] = target: T5, Transient receptor potential cation channel subfamily V member 2 (Homo sapiens) (UniProt Q9Y5S1); assay: Agonist activity at ionomycin-stimulated TRPV2 (unknown origin) activation assessed as efficacy relative to control; conditions: filed as agonist
T5 sequence (whole entry): T3 sequence (Q9Y5S1 whole entry)

[17] = target: Alpha-2A adrenergic receptor (Homo sapiens) (UniProt P08913); assay: Displacement of [35S]GTPgammaS from human alpha2-adreno receptor receptor expressed in CHO cells; format: cell-based
[18] = target: T6, Transient receptor potential cation channel subfamily V member 3 (Homo sapiens, UniProt Q8NET8); assay: Agonist activity at ionomycin-stimulated TRPV3 (unknown origin) activation
T6 sequence (Q8NET8 whole entry): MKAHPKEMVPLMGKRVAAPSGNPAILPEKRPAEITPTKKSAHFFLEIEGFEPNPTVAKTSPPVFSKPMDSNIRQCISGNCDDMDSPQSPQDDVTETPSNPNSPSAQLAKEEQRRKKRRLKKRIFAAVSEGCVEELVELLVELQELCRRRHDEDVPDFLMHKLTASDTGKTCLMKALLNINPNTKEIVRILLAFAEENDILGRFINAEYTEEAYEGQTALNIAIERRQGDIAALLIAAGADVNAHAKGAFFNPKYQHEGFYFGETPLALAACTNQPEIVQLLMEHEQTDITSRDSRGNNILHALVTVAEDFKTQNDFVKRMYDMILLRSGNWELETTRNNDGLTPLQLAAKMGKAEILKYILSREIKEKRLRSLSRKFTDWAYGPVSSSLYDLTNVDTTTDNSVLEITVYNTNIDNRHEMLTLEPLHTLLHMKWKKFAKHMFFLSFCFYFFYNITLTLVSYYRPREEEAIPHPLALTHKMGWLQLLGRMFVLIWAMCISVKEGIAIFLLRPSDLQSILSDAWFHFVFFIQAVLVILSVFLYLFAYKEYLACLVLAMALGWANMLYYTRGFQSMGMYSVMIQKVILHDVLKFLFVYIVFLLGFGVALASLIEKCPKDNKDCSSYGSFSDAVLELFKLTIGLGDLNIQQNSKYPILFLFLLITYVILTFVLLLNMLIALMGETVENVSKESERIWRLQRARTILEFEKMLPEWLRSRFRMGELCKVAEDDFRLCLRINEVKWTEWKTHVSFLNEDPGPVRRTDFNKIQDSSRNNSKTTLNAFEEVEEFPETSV

[19] = target: T3, Transient receptor potential cation channel subfamily V member 2; assay: Agonist activity at ionomycin-stimulated TRPV2 (unknown origin) channel desensitization in presence of lysophosphatidylcholine
[20] = target: T2, Transient receptor potential cation channel subfamily A member 1; assay: Agonist activity at TRPA1 (unknown origin) activation assessed as efficacy relative to control; conditions: filed as agonist
[21] = target: Transient receptor potential cation channel subfamily V member 1 (Homo sapiens, UniProt Q8NER1); assay: Agonist activity at ionomycin-stimulated TRPV1 (unknown origin) activation assessed as efficacy relative to control
[22] = target: T1, Cannabinoid receptor 1; assay: Displacement of [3H]-WIN55212-2 from human CB1 receptor transfected in CHO cell membrane incubated for 90 mins by Liquid scintillation counter analysis; format: cell membranes
[23] = target: T6, Transient receptor potential cation channel subfamily V member 3; assay: Agonist activity at ionomycin-stimulated TRPV3 (unknown origin) channel desensitization in presence of carvacrol
[24] = target: T7, Transient receptor potential cation channel subfamily V member 3 (Homo sapiens) (UniProt Q8NET8); assay: Agonist activity at ionomycin-stimulated TRPV3 (unknown origin) activation assessed as efficacy relative to control
T7 sequence (whole entry): T6 sequence (Q8NET8 whole entry)

[25] = target: T4, Transient receptor potential cation channel subfamily V member 4; assay: Agonist activity at ionomycin-stimulated TRPV4 (unknown origin) channel desensitization in presence of 4alphaPDD

T4 sequence (Q9HBA0 whole entry): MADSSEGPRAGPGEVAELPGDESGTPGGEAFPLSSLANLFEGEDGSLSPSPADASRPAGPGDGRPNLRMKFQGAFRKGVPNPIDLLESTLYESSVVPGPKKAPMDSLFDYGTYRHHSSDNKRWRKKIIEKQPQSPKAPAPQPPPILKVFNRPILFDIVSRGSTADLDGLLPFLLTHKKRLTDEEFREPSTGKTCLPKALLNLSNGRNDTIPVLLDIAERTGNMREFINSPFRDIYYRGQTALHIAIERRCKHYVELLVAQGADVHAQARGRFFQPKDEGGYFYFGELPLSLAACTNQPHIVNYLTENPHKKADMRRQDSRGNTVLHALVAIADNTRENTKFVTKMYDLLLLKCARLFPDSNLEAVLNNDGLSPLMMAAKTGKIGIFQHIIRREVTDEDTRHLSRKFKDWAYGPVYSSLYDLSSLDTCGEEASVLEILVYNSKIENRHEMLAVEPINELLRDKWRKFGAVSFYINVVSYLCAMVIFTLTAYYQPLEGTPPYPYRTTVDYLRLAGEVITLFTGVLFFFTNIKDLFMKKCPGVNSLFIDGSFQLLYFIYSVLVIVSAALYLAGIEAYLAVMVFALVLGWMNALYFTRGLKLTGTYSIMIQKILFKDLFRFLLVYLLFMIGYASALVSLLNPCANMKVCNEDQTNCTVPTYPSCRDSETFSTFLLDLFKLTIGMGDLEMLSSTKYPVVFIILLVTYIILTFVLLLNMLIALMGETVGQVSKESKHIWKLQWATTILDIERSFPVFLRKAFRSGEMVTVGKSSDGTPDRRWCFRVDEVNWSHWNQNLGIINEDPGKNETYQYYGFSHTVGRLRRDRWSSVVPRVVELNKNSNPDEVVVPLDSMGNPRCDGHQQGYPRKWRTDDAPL
T1 sequence (P21554 whole entry): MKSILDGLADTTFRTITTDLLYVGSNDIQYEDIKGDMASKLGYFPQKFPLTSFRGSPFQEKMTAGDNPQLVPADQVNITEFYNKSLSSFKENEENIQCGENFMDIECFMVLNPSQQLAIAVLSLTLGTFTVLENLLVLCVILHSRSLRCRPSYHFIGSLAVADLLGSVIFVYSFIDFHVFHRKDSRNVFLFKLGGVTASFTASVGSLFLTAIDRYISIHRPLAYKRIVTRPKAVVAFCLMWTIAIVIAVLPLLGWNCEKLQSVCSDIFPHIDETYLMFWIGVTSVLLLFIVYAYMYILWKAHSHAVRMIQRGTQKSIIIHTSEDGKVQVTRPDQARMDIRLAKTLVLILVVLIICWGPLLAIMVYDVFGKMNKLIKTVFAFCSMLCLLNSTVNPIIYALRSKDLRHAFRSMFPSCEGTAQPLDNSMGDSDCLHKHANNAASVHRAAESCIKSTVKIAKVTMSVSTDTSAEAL
T2 sequence (O75762 whole entry): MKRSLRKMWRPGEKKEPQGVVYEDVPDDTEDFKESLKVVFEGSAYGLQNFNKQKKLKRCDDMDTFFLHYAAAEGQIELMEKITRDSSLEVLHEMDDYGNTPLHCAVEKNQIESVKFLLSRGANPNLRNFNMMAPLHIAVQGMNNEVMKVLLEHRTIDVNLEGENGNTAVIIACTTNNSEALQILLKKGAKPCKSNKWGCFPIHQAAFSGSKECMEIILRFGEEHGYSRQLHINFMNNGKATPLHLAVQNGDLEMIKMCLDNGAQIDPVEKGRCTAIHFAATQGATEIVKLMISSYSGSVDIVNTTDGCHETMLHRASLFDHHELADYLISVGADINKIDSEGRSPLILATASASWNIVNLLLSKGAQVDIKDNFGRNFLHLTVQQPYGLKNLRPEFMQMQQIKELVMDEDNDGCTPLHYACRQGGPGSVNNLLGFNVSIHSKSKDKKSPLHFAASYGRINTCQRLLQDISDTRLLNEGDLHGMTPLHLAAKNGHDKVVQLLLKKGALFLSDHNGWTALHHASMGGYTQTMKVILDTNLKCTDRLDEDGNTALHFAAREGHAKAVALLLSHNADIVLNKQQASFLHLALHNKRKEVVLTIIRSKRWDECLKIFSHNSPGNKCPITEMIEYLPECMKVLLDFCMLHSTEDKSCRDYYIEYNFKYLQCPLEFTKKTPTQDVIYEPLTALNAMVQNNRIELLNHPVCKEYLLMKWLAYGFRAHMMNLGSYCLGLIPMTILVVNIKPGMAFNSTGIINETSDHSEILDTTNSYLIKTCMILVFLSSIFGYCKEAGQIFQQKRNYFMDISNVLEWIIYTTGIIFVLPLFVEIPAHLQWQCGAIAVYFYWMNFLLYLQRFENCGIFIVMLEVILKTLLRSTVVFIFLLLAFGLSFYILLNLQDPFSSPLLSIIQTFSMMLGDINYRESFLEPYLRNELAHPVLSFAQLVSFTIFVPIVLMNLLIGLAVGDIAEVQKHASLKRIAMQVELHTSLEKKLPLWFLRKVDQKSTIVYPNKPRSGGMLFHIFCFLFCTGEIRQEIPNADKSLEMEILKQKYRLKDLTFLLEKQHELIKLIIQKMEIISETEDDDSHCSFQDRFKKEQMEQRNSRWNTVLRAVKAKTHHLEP
Chain of Cannabinoid receptor 1 (Mus musculus) (P47746 whole entry): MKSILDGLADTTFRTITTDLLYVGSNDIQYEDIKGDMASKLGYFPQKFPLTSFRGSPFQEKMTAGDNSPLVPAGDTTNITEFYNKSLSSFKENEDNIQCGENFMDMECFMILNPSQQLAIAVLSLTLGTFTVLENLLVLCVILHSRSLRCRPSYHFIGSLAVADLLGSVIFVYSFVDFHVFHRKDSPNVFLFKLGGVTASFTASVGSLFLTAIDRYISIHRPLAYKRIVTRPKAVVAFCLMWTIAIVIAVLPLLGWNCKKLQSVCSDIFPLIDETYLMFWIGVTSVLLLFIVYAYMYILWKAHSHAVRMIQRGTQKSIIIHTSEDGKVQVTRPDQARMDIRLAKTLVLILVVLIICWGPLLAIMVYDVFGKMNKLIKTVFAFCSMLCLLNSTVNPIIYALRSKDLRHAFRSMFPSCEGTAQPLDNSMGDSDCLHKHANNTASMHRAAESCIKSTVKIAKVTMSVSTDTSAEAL
Chain of Alpha-2A adrenergic receptor (Homo sapiens) (P08913 whole entry): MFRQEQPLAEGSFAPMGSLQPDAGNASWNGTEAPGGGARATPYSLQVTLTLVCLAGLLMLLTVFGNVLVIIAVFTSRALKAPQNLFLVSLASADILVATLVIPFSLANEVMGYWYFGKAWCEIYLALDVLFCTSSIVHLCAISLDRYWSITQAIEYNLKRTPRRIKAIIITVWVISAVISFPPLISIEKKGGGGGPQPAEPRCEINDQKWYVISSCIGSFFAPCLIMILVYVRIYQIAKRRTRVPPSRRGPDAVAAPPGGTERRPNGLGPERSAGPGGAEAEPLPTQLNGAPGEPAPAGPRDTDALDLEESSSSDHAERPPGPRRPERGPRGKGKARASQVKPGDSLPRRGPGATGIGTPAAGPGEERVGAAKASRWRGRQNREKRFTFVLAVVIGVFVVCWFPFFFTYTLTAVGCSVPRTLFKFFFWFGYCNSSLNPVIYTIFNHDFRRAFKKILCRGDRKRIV
Chain of Cannabinoid receptor 1 (Rattus norvegicus, UniProt P20272) (P20272 whole entry): as the sequence (P47746 whole entry) above, with D95E counted along it
Chain of Cannabinoid receptor 2 (P34972 whole entry): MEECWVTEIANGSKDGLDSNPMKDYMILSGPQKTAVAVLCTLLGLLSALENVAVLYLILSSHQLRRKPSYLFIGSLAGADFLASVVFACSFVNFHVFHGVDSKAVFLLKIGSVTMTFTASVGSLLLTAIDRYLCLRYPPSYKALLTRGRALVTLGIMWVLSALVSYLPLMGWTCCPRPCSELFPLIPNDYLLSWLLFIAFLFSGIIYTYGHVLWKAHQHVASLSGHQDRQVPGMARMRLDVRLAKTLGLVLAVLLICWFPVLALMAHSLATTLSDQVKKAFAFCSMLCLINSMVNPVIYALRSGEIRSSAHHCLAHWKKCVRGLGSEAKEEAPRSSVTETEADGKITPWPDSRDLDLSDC
Chain of Transient receptor potential cation channel subfamily V member 1 (Q8NER1 whole entry): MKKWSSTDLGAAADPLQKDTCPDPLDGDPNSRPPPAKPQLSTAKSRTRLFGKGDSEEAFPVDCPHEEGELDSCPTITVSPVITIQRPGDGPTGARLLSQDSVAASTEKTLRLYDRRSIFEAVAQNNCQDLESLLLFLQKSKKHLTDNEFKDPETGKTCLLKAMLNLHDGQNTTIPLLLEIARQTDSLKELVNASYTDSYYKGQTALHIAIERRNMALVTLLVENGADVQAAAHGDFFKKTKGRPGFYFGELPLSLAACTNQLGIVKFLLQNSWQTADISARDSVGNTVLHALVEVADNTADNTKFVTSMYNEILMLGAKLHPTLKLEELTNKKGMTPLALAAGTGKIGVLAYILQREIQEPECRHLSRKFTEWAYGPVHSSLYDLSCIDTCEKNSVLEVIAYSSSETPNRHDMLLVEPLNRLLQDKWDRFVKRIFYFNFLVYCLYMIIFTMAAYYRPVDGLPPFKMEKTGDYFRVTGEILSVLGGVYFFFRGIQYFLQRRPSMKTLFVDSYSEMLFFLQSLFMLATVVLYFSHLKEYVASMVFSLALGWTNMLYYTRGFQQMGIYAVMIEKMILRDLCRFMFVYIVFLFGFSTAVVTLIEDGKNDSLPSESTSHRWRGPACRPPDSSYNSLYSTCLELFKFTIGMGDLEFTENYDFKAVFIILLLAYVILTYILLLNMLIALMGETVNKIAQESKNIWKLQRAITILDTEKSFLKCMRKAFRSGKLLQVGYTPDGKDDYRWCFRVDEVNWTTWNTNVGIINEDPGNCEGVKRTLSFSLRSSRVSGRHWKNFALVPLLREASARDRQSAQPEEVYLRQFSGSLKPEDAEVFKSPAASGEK

CCCCCCCc1cc(O)c2c(c1)OC(C)(C)[C@@H]1CCC(C)=C[C@@H]21
Ki [1]: 0.0069 µM | Ki [2]: 0.13 µM

CCCCCc1cc(O)c(C/C=C(\C)CCC=C(C)C)c(O)c1 [CANNABIGEROL]
IC50 [3]: 13 µM | MIC [4]: 0.5 µg/mL (≈ 1.58 µM) | MIC90 [4]: 4 µg/mL (≈ 12.6 µM) | log(activity) [5]: 2.8 | EC50 [6]: 1.7 µM | Ki [7]: 1.1 µM | Ki [8]: 2.6 µM | EC50 [9]: 0.7 µM | MIC90 [10]: 4 µg/mL (≈ 12.6 µM) | EC50 [11]: 5.1 µM | K [12]: 0.38 µM | MIC [13]: 4 µg/mL | Ki [14]: 0.44 µM | Efficacy [15]: 24% | Efficacy [16]: 74% | EC5 [17]: 0.002 µM | EC50 [18]: 1 µM | IC50 [19]: 1.5 µM | Efficacy [20]: 100% | Efficacy [21]: 34% | K [22]: 1.04 µM | IC50 [23]: 66 µM | Efficacy [24]: 18% | IC50 [25]: 1.3 µM
